Literature values, collected in US20240366505A1, “Liquid Resin Extended-Release Oral Naltrexone Formulation for Treating Autism-Related Disorders” (AARDVARK THERAPEUTICS, INC., priority 2022, published 2024).
Like-named read-outs stand apart in the source and are kept apart here.

Key:
[1] = single 50 mg REVIA tablet
[2] = 6-β-naltrexol; 50 mg REVIA tablets once daily for 7 days
autistic behavior = conditions: 0.5, 1.0 and 2.0 mg/kg immediate release oral
[3] = 50 mg once daily
ASD children = conditions: 20 mg immediate release per day for 4 weeks
[4] = in vivo
children with ASD = conditions: 1.0 mg/kg single daily immediate release oral dose, 12 or 14 days

| Structure (SMILES) | AUC(0-inf) ([1]; 6-β-naltrexol, mean (CV%)) | Cmax ([1]; 6-β-naltrexol, mean (CV%)) | Tmax ([1]; 6-β-naltrexol, mean (CV%)) | AUC(0-τ) [2] | Cmax [2] | Tmax ([1]; naltrexone, Mean (CV %)) | effect on autistic behavior and gaze aversion (autistic behavior) | accumulation (after 100 mg daily doses) | excretion of parent drug and metabolites by the kidney (human, in vivo) | dose absorbed from the gastrointestinal tract (human, in vivo, po) | urinary excretion of unchanged naltrexone (immediate release formulations) | dose proportionality of AUC and Cmax (over the range of 50-200 mg) | rate of early discontinuation of treatment versus placebo [3] | adverse effects versus placebo ([3]; weeks 1, 5 and 8) | CGI ratings of the teachers (ASD children) | behavior ratings completed by the teachers (Aberrant Behavior Checklist (ABC) scores) (ASD children) | incidence of difficulty sleeping, anxiety, nervousness, abdominal pain/cramps, nausea and/or vomiting, low energy, joint/muscle pain, headache [4] | incidence of loss of appetite, diarrhea, constipation, thirstiness, increased energy, feeling down, irritability, dizziness, skin rash, delayed ejaculation, erectile dysfunction, chills [4] | changes in parent measures (CGI, Conners IHF, SE-Restlessness) and Teacher CGI (children with ASD) |
| --- | --- | --- | --- | --- | --- | --- | --- | --- | --- | --- | --- | --- | --- | --- | --- | --- | --- | --- | --- |
| Oc1ccc2c3c1O[C@H]1[C@H](O)CC[C@@]4(O)[C@@H](C2)N(CC2CC2)CC[C@]314 [6-β-naltrexol] | 717.3 ng·h/mL | 85.6 ng/mL | 1.05 h | 788 ± 134.8 ng·h/mL | 96.1 ± 21.05 ng/mL |  |  |  |  |  |  |  |  |  |  |  |  |  |  |
| O=C1CC[C@@]2(O)[C@H]3Cc4ccc(O)c5c4[C@@]2(CCN3CC2CC2)[C@H]1O5 [naltrexone, 17-(cyclopropylmethyl)-4,5α-epoxy-3,14-dihydroxy-morphinan-6-one] |  |  |  |  |  | 1.07 h | reverse autistic behavior and gaze aversion | do not accumulate | 53-79 % of the dose | approximately 96% | less than 2 % of an oral dose | dose-proportional | greater rate | significantly more adverse effects | Significant difference | significant changes | Greater than 10% | Less than 10% | achieved statistical significance |
